{
  "source": "patent US20150037372A1",
  "about": "“pH-Responsive High-Density Lipoprotein-Like Particle Complex” (RESEARCH & BUSINESS FOUNDATION SUNGKYUNKWAN UNIVERSITY, priority 2012, published 2015)",
  "key": {"[1]": {"system": "ICR mice", "assay": "In vivo safety test with endotoxin-purified apoA-I (Example 7-3)", "protocol": "(§1) A solution containing the drug Epothilone B (EpoB) was sonicated in the presence of a surfactant (sodium cholate) to encapsulate the EpoB in micelles composed of the surfactant. Then, apoA-I was added to and mixed with the sonicated solution while the concentration of the surfactant was lowered below its critical micelle concentration by dilution. The remaining surfactant was removed by Bio-bead, and the remaining solution was subjected to centrifugation and size exclusion chromatography, thereby preparing an EpoB-encapsulating apoA-I (hereinafter referred to as ‘EpoB-rHDL’).\n(§2) EpoB was dissolved in poly ethylene glycol 300 (PEG 300) and then diluted so that the final concentration of PEG 300 was 30% (v/v). In addition, 30% PEG 300 that is a medium for Epothilone B, and apoA-I were selected as negative controls.\n(§3) Twenty-eight (seven per group) 6-week-old female ICR mice were purchased from Orientbio Inc. (Korea). The mice were subjected to veterinary inspection for general health conditions and were acclimated to the laboratory environment for 1 week. An animal test was performed in the Laboratory Animal Research Center, Sungkyunkwan University.\n(§4) The test material was administered into the tail vein of the grouped ICR mice at a dose of 100 μL once a week for 4 weeks. To verify the toxicity and safety of the test material, the concentration of EpoB encapsulated in apoA-I was measured, and the poB-encapsulating apoA-I or the free EpoB was administered at a dose higher than the maximum tolerated dose of EpoB. For the first 2 weeks, the test material was administered to the ICR mice at a dose of 10 mg/kg, which corresponds four times the maximum tolerated dose of EpoB, and for the next 2 weeks, it was administered at a high EpoB dose of 81 mg/kg. The control apoA-I was administered at a dose corresponding to the concentration of apoA-I in the EpoB-encapsulating apoA-I.\n(§5) To observe changes in the body weight of the mice during the test period, the body weight of the mice was measured every day after the start of the test, and diarrhea, hair loss and quadriplegia as the suspected side effects of epoB were observed.\n(§6) For liver toxicity analysis, upon the death of the test animals or at the end of the test, the animals were anesthetized with a mixture of Zoletil and Rompun, and then sera were obtained by blood collection from the abdominal aorta. Alanine transferase (ALT) and aspartate transaminase (AST) in the sera were analyzed by an automatic chemistry analyzer.\n(§7) Upon the death of the test animals or at the end of the test, the animals were anesthetized with a mixture of Zoletil and Rompun. Next, the liver was harvested and weighed, and the percentage of the weight of the liver relative to the body weight was comparatively analyzed. In addition, the stomach was harvested and observed to the naked eye.\nUsing an apoA-I purified to have an endotoxin content of 5-10 EU/mg, an EpoB-encapsulating apoA-I was prepared according to the method described in Example 7-1(1).\nEpoB and the EpoB-encapsulating apoA-I were administered at doses of 10 mg/kg and 81 mg/kg, which are higher than the maximum tolerated dose of EpoB."}, "[2]": {"system": "breast cancer cell line ZR-75-1", "assay": "MTT cell viability assay, 72 hours", "assay_type": "cell-based", "settings": "ZR-75-1, overexpresses SR-B1, 72 hours", "protocol": "(§8) The MTT assay was performed in the following manner: First, an MTT concentrate obtained by dissolving 3-(4,5-dimethyl-2-thiazolyl)-2,5-diphenyl-2H-tetrazolium bromide (MTT, Calbiochem) in PBS at a concentration of 5 mg/mL was filtered and diluted (10%) to prepare an MTT solution. Meanwhile, the medium and the drug were removed from the cells treated with the drug or the drug-encapsulating apoA-I, and then 100 μL of the prepared MIT solution was seeded into each well and allowed to react at 37° C. in 5% CO2 for 3 hours. After completion of the reaction, the medium and the MTT solution were removed, and 100 μL of 100% DMSO was seeded into each well and allowed to react at room temperature for 20 minutes under a light-shielded condition. After completion of the secondary reaction, the absorbance of the sample at 570 nm was measured using a spectrophotometer (Spectra M2, Molecular device), and the measured value was substituted into the following equation to determine cell viability: […]\n(§9) In addition, the cancer cells were treated with free EpoB or the EpoB-encapsulating apoA-I at various EpoB concentrations for 72 hours, and the cell viability for each drug was measured using an MTT (3-(4,5-dimethylthiazol-2-yl)-2,5-diphenyltetrazolium bromide) assay. […]"}, "[3]": {"system": "colorectal cancer cell line Caco-2", "assay": "MTT cell viability assay, 72 hours", "assay_type": "cell-based", "settings": "Caco-2, overexpresses SR-B1, 72 hours", "protocol": "as §8, §9"}, "[4]": {"system": "ICR mice", "assay": "Primary in vivo test using apoA-I with endotoxin content of more than 10,000 EU/mg (Example 7-2)", "settings": "for body weight loss / ALT / AST / Liver (%): endotoxin-containing apoA-I test; for ALT / AST: serum; for Liver (%): weight of liver relative to body weight", "protocol": "as §1, §2, §3, §4, §5, §6, §7\nIn a primary test, an EpoB-encapsulating apoA-I was prepared using an apoA-I having an endotoxin content of more than 10,000 EU/mg and was administered to ICR mice once a week for 4 weeks."}, "[5]": {"settings": "high dose 81 mg/kg, week 3 and 4"}, "[6]": {"settings": "each ICR mouse (No. 1-7), * raised by hemolysis, listed as apoA-1"}, "[7]": {"settings": "group average (total), hemolysis values excluded"}},
  "note": "Values joined by “and” are separate entries in the source; they are usually repeats but may differ in a detail not shown here. Equal entries are not always repeated.",
  "data": [
    {"compound": "C/C(=C\\c1csc(C)n1)[C@@H]1C[C@@H]2O[C@]2(C)CCC[C@H](C)[C@H](O)[C@@H](C)C(=O)C(C)(C)[C@@H](O)CC(=O)O1", "note": "[EpoB, Epothilone B, reference compound]", "values": [
      {"measurement": "adverse effects in appearance examination", "setting": "[1]; 10 mg/kg at week 1 and week 2", "value": "no adverse effects were observed"},
      {"measurement": "gastric hypersensitivity caused by abdominal lymphadenopathy", "setting": "[1]; autopsy", "value": "observed in the control group"},
      {"measurement": "Liver (%)", "setting": "[1]; each ICR mouse (No. 1-7)", "value": "3.45% and 4.19% and 4.85% and 6.48% and 3.79% and 5.12% and 4.33%"},
      {"measurement": "hair loss", "setting": "[1]; [5]", "value": "hair loss occurred"},
      {"measurement": "quadriplegia", "setting": "[1]; [5]", "value": "quadriplegia"},
      {"measurement": "survival of the mice", "setting": "[1]; [5]", "value": "dead at week 3 and week 4"},
      {"measurement": "body weight loss", "setting": "[1]; high dose 81 mg/kg, week 3 and 4, EpoB values are of individual animals, 81 mg/kg", "value": "about 25% and 7-17% and about 11% and 11.5%"},
      {"measurement": "decrease of AST/ALT ratio compared to control group administered with EpoB", "setting": "[1]; mouse, in vivo", "value": "about 47%"},
      {"measurement": "cell viability compared to treatment with the EpoB-encapsulating apoA-I", "setting": "[2]", "value": "higher cell viability"},
      {"measurement": "cell viability compared to treatment with the EpoB-encapsulating apoA-I", "setting": "[3]", "value": "higher cell viability"},
      {"measurement": "survival rate", "setting": "[4]; 22 days after the start of administration, tail vein once a week, endotoxin-containing apoA-I", "value": 100, "unit": "%"},
      {"measurement": "body weight loss", "setting": "[4]", "value": "showed a body weight loss"},
      {"measurement": "ALT", "setting": "[4]", "value": "18.1 ± .38 U/L"},
      {"measurement": "AST", "setting": "[4]", "value": "45.6 ± 9.3", "unit": "U/L"},
      {"measurement": "Liver (%)", "setting": "[4]", "value": "4.7 ± 0.3", "unit": "%"}
    ]},
    {"compound": "apoA-I: recombinant His-tagged human apolipoprotein A-I, 28 kDa, 243 amino acids; carrier protein and negative control", "values": [
      {"measurement": "ALT", "setting": "[1]; [6]", "value": "27 U/L and 25 U/L and 29 U/L and 21 U/L and 19 U/L and 15 U/L and 16 U/L"},
      {"measurement": "AST", "setting": "[1]; [6]", "value": "64 U/L and 73 U/L and 56 U/L and 48 U/L and 69 U/L and 41 U/L and 49 U/L"},
      {"measurement": "AST/ALTT", "setting": "[1]; [6]", "value": "2.37 and 2.92 and 1.93 and 2.29 and 3.63 and 2.73 and 3.06"},
      {"measurement": "Liver (%)", "setting": "[1]; each ICR mouse (No. 1-7), listed as apoA-1", "value": "3.83% and 3.55% and 4.87% and 3.42% and 4.03% and 5% and 4.13%"},
      {"measurement": "Liver (%)", "setting": "[1]; group average (total)", "value": "4.12 ± 0.57", "unit": "%"},
      {"measurement": "ALT", "setting": "[1]; [7]", "value": "21.71 ± 5.03", "unit": "U/L"},
      {"measurement": "AST", "setting": "[1]; [7]", "value": "57.14 ± 11.03", "unit": "U/L"},
      {"measurement": "AST/ALT", "setting": "[1]; [7]", "value": "2.70 ± 0.52"},
      {"measurement": "survival, body weight change and hair loss", "setting": "[1]; high dose of about 266 mg/kg", "value": "did not affect the survival, body weight change and hair loss"},
      {"measurement": "body weight loss", "setting": "[4]", "value": "higher body weight loss"},
      {"measurement": "toxicity", "setting": "[4]; once a week for 4 weeks, apoA-I with endotoxin more than 10,000 EU/mg", "value": "toxicity was observed"},
      {"measurement": "ALT", "setting": "[4]", "value": "34.4 ± 16.9", "unit": "U/L"},
      {"measurement": "AST", "setting": "[4]", "value": "52.9 ± 13.2", "unit": "U/L"},
      {"measurement": "Liver (%)", "setting": "[4]", "value": "6 ± 1.1", "unit": "%"}
    ]}
  ]
}
